Test results published in patent publication US20240057606A1, “MOLECULES HAVING CERTAIN PESTICIDAL UTILITIES, AND INTERMEDIATES, COMPOSITIONS, AND PROCESSES RELATED THERETO” (priority 2020, published 2024).

Legend:
Type in all cases: in vivo
[1] = test system: Beet Armyworm (Spodoptera exigua, "BAW"); assay: Bioassay on beet armyworm, 128-well diet tray assay; conditions: 168 h, 50 μg/cm^2 of test compound on artificial diet, second instar larvae, 25° C., five to seven days, average of eight wells, read-out: BAW % Control (or Mortality) rating
Description: (§1) Bioassays on Beet Armyworm (Spodoptera exigua, “BAW”) and Cabbage Looper (Trichoplusia ni, “CL”)
(§2) Certain molecules disclosed in this document were tested against BAW and CL using procedures described in the following examples. In the reporting of the results, the “BAW & CL Rating Table” was used (See Table Section).
Bioassays on BAW were conducted using a 128-well diet tray assay. one to five second instar BAW larvae were placed in each well (3 mL) of the diet tray that had been previously filled with 1 mL of artificial diet to which 50 μg/cm^2 of the test compound (dissolved in 50 μL of 90:10 acetone-water mixture) had been applied (to each of eight wells) and then allowed to dry. Trays were covered with a clear self-adhesive cover and held at 25° C., 14:10 light-dark cycle for five to seven days. Percent mortality was recorded for the larvae in each well; activity in the eight wells was then averaged. The results are indicated in the table entitled “Table ABC: Biological Results” (See Table Section).

[2] = test system: Cabbage Looper (Trichoplusia ni, "CL"); assay: Bioassay on cabbage looper, 128-well diet tray assay; conditions: 168 h, 50 μg/cm^2 of test compound on artificial diet, second instar larvae, 25° C., five to seven days, average of eight wells, read-out: CL % Control (or Mortality) rating
Description: as §1, §2
Bioassays on CL were conducted using a 128-well diet tray assay. one to five second instar CL larvae were placed in each well (3 mL) of the diet tray that had been previously filled with 1 mL of artificial diet to which 50 μg/cm^2 of the test compound (dissolved in 50 μL of 90:10 acetone-water mixture) had been applied (to each of eight wells) and then allowed to dry. Trays were covered with a clear self-adhesive cover and held at 25° C., 14:10 light-dark cycle for five to seven days. Percent mortality was recorded for the larvae in each well; activity in the eight wells was then averaged. The results are indicated in the table entitled “Table ABC: Biological Results” (See Table Section).

[3] = test system: Yellow Fever Mosquito (Aedes aegypti, "YFM"); assay: Bioassay on yellow fever mosquito larvae, 96-well plate assay; conditions: 4000 ppm DMSO master solution diluted with 90:10 water:acetone; about 1 day-old larvae; room temperature; scored after 3 days
Description: Bioassays On Yellow Fever Mosquito (Aedes aegypti, “YFM”)
Certain molecules disclosed in this document were tested against YFM using procedures described in the following paragraph. In the reporting of the results, the “YFM Rating Table” was used (See Table Section).
Master plates containing 400 μg of a molecule dissolved in 100 μL of dimethyl sulfoxide (DMSO) (equivalent to a 4000 ppm solution) are used. A master plate of assembled molecules contains 15 μL per well. To this plate, 135 μL of a 90:10 water:acetone mixture is added to each well. A robot (Biomek® NXP Laboratory Automation Workstation) is programmed to dispense 15 μL aspirations from the master plate into an empty 96-well shallow plate (“daughter” plate). There are 6 reps (“daughter” plates) created per master. The created daughter plates are then immediately infested with YFM larvae.
The day before plates are to be treated, mosquito eggs are placed in Millipore water containing liver powder to begin hatching (4 g. into 400 mL). After the daughter plates are created using the robot, they are infested with 220 μL of the liver powder/larval mosquito mixture (about 1 day-old larvae). After plates are infested with mosquito larvae, a non-evaporative lid is used to cover the plate to reduce drying. Plates are held at room temperature for 3 days prior to grading. After 3 days, each well is observed and scored based on mortality.

Cc1cc(-c2ncn(-c3ccc(OC(F)(F)C(F)(F)F)cc3)n2)ccc1NC(=O)/N=C1\SCC(=O)N1c1cccc2ncccc12 [F32, (Z)-1-(2-Methyl-4-(1-(4-(perfluoroethoxy)phenyl)-1H-1,2,4-triazol-3-yl)phenyl)-3-(4-oxo-3-(quinolin-5-yl)thiazolidin-2-ylidene)urea] was tested, and the mortality at 50 µg/cm2 [1] was 50 to 100%, the mortality at 50 µg/cm2 [2] was 50 to 100% and the “YFM % Control (or Mortality) rating” value [3] was “A (80-100)”.
Cc1cc(-c2ncn(-c3ccc(OC(F)(F)C(F)(F)F)cc3)n2)ccc1NC(=O)/N=C1\SCC(=O)N1c1ccc2ccccc2c1 [F29, (Z)-1-(2-Methyl-4-(1-(4-(perfluoroethoxy)phenyl)-1H-1,2,4-triazol-3-yl)phenyl)-3-(3-(naphthalen-2-yl)-4-oxothiazolidin-2-ylidene)urea] was tested, and the mortality at 50 µg/cm2 [1] was 50 to 100%, the mortality at 50 µg/cm2 [2] was 50 to 100% and the “YFM % Control (or Mortality) rating” value [3] was “D (No activity noticed in this bioassay)”.
O=C(/N=C1\SCC(=O)N1c1cccc2ncccc12)Nc1ccc(-c2ncn(-c3ccc(C(F)(F)C(F)(F)F)cc3)n2)cc1F [F34, (Z)-1-(2-Fluoro-4-(1-(4-(perfluoroethyl)phenyl)-1H-1,2,4-triazol-3-yl)phenyl)-3-(4-oxo-3-(quinolin-5-yl)thiazolidin-2-ylidene)urea] was tested, and the “YFM % Control (or Mortality) rating” value [3] was “A (80-100)”.
O=C(/N=C1\SCC(=O)N1c1cc2c(cc1COCC(F)(F)F)OCO2)Nc1ccc(-c2ncn(-c3ccc(OC(F)(F)F)cc3)n2)cc1F [F2, (Z)-1-(2-Fluoro-4-(1-(4-(trifluoromethoxy)phenyl)-1H-1,2,4-triazol-3-yl)phenyl)-3-(4-oxo-3-(6-((2,2,2-trifluoroethoxy)methyl)benzo[d][1,3]dioxol-5-yl)thiazolidin-2-ylidene)urea] showed a mortality at 50 µg/cm2 [1] of 50 to 100% and a mortality at 50 µg/cm2 [2] of 50 to 100%.
O=C(/N=C1\SCC(=O)N1c1cccc2c1CCC2)Nc1ccc(-c2ncn(-c3ccc(OC(F)(F)F)cc3)n2)cc1F [F10, (Z)-1-(3-(2,3-Dihydro-1H-inden-4-yl)-4-oxothiazolidin-2-ylidene)-3-(2-fluoro-4-(1-(4-(trifluoromethoxy)phenyl)-1H-1,2,4-triazol-3-yl)phenyl)urea] showed a mortality at 50 µg/cm2 [1] of 50 to 100% and a mortality at 50 µg/cm2 [2] of 50 to 100%.
Cn1ccc2cc(N3C(=O)CS/C3=N\C(=O)Nc3ccc(-c4ncn(-c5ccc(C(F)(F)C(F)(F)F)cc5)n4)cc3F)ccc21 [F24, (Z)-1-(2-Fluoro-4-(1-(4-(perfluoroethyl)phenyl)-1H-1,2,4-triazol-3-yl)phenyl)-3-(3-(1-methyl-1H-indol-5-yl)-4-oxothiazolidin-2-ylidene)urea] was tested, and the “YFM % Control (or Mortality) rating” value [3] was “D (No activity noticed in this bioassay)”.
Work on Cc1cc(-c2ncn(-c3ccc(OC(F)(F)C(F)(F)F)cc3)n2)ccc1NC(=O)/N=C1\SCC(=O)N1c1cccc2ccccc12 [F26, (Z)-1-(2-Methyl-4-(1-(4-(perfluoroethoxy)phenyl)-1H-1,2,4-triazol-3-yl)phenyl)-3-(3-(naphthalen-1-yl)-4-oxothiazolidin-2-ylidene)urea] yielded a mortality at 50 µg/cm2 [1] of 50 to 100% and a mortality at 50 µg/cm2 [2] of 50 to 100%.
Cc1cc(-c2ncn(-c3ccc(OC(F)(F)C(F)(F)F)cc3)n2)ccc1NC(=O)/N=C1\SCC(=O)N1c1cccc2c1CCO2 [F25, (Z)-1-(3-(2,3-Dihydrobenzofuran-4-yl)-4-oxothiazolidin-2-ylidene)-3-(2-methyl-4-(1-(4-(perfluoroethoxy)phenyl)-1H-1,2,4-triazol-3-yl)phenyl)urea] showed a mortality at 50 µg/cm2 [1] of 50 to 100% and a mortality at 50 µg/cm2 [2] of 50 to 100%.
With O=C(/N=C1\SCC(=O)N1c1cccc2c1COC2)Nc1ccc(-c2ncn(-c3ccc(OC(F)(F)F)cc3)n2)cc1F [F8, (Z)-1-(3-(1,3-Dihydroisobenzofuran-4-yl)-4-oxothiazolidin-2-ylidene)-3-(2-fluoro-4-(1-(4-(trifluoromethoxy)phenyl)-1H-1,2,4-triazol-3-yl)phenyl)urea] the mortality at 50 µg/cm2 [1] was 50 to 100% and the mortality at 50 µg/cm2 [2] was 50 to 100%.
Work on O=C(/N=C1\SCC(=O)N1c1cccc2occc12)Nc1ccc(-c2ncn(-c3ccc(OC(F)(F)F)cc3)n2)cc1F [F4, (Z)-1-(3-(Benzofuran-4-yl)-4-oxothiazolidin-2-ylidene)-3-(2-fluoro-4-(1-(4-(trifluoromethoxy)phenyl)-1H-1,2,4-triazol-3-yl)phenyl)urea] yielded a mortality at 50 µg/cm2 [1] of 50 to 100% and a mortality at 50 µg/cm2 [2] of 50 to 100%.
With Cn1ccc2c(N3C(=O)CS/C3=N\C(=O)Nc3ccc(-c4ncn(-c5ccc(C(F)(F)C(F)(F)F)cc5)n4)cc3F)cccc21 [F30, (Z)-1-(2-Fluoro-4-(1-(4-(perfluoroethyl)phenyl)-1H-1,2,4-triazol-3-yl)phenyl)-3-(3-(1-methyl-1H-indol-4-yl)-4-oxothiazolidin-2-ylidene)urea] the “YFM % Control (or Mortality) rating” value [3] was “A (80-100)”.
Compound O=C(/N=C1\SCC(=O)N1c1cccc2c1OCC2)Nc1ccc(-c2ncn(-c3ccc(OC(F)(F)F)cc3)n2)cc1F [F9, (Z)-1-(3-(2,3-Dihydrobenzofuran-7-yl)-4-oxothiazolidin-2-ylidene)-3-(2-fluoro-4-(1-(4-(trifluoromethoxy)phenyl)-1H-1,2,4-triazol-3-yl)phenyl)urea] has a mortality at 50 µg/cm2 [1] of 50 to 100% and a mortality at 50 µg/cm2 [2] of 50 to 100%.
Work on O=C(/N=C1\SCC(=O)N1c1ccc2c(c1)C(=O)OC2=O)Nc1ccc(-c2ncn(-c3ccc(OC(F)(F)F)cc3)n2)cc1F [F11, (Z)-1-(3-(1,3-Dioxo-1,3-dihydroisobenzofuran-5-yl)-4-oxothiazolidin-2-ylidene)-3-(2-fluoro-4-(1-(4-(trifluoromethoxy)phenyl)-1H-1,2,4-triazol-3-yl)phenyl)urea] yielded a mortality at 50 µg/cm2 [1] of 0% and a mortality at 50 µg/cm2 [2] of 50 to 100%.
In the case of O=C(/N=C1\SCC(=O)N1c1cccc2ccoc12)Nc1ccc(-c2ncn(-c3ccc(OC(F)(F)F)cc3)n2)cc1F [F5, (Z)-1-(3-(Benzofuran-7-yl)-4-oxothiazolidin-2-ylidene)-3-(2-fluoro-4-(1-(4-(trifluoromethoxy)phenyl)-1H-1,2,4-triazol-3-yl)phenyl)urea], the mortality at 50 µg/cm2 [1] is reported as 50 to 100% and the mortality at 50 µg/cm2 [2] is reported as 50 to 100%.
O=C(/N=C1\SCC(=O)N1c1cc2c(cc1COCC(F)(F)F)OCO2)Nc1ccc(-c2ncn(-c3ccc(S(F)(F)(F)(F)F)cc3)n2)cc1F [F3, (Z)-1-(2-Fluoro-4-(1-(4-(pentafluoro-λ^6-sulfaneyl)phenyl)-1H-1,2,4-triazol-3-yl)phenyl)-3-(4-oxo-3-(6-((2,2,2-trifluoroethoxy)methyl)benzo[d][1,3]dioxol-5-yl)thiazolidin-2-ylidene)urea] showed a mortality at 50 µg/cm2 [1] of 50 to 100% and a mortality at 50 µg/cm2 [2] of 50 to 100%.
With O=C(/N=C1\SCC(=O)N1c1cccc2ocnc12)Nc1ccc(-c2ncn(-c3ccc(OC(F)(F)F)cc3)n2)cc1F [F7, (Z)-1-(3-(Benzo[d]oxazol-4-yl)-4-oxothiazolidin-2-ylidene)-3-(2-fluoro-4-(1-(4-(trifluoromethoxy)phenyl)-1H-1,2,4-triazol-3-yl)phenyl)urea] the mortality at 50 µg/cm2 [1] was 50 to 100% and the mortality at 50 µg/cm2 [2] was 50 to 100%.
With Cc1cc(-c2ncn(-c3ccc(OC(F)(F)C(F)(F)F)cc3)n2)ccc1NC(=O)/N=C1\SCC(=O)N1c1cccc2c1OCC2 [F28, (Z)-1-(3-(2,3-Dihydrobenzofuran-7-yl)-4-oxothiazolidin-2-ylidene)-3-(2-methyl-4-(1-(4-(perfluoroethoxy)phenyl)-1H-1,2,4-triazol-3-yl)phenyl)urea] the “YFM % Control (or Mortality) rating” value [3] was “A (80-100)”.
Cc1cc(-c2ncn(-c3ccc(OC(F)(F)F)cc3)n2)ccc1NC(=O)/N=C1\SCC(=O)N1c1cc2c(cc1COCC(F)(F)F)OCO2 [F1] showed a mortality at 50 µg/cm2 [1] of 50 to 100% and a mortality at 50 µg/cm2 [2] of 50 to 100%.
With Cc1cc(-c2ncn(-c3ccc(OC(F)(F)C(F)(F)F)cc3)n2)ccc1NC(=O)/N=C1\SCC(=O)N1c1ccc2c(ccn2C)c1 [F31, (Z)-1-(3-(1-Methyl-1H-indol-5-yl)-4-oxothiazolidin-2-ylidene)-3-(2-methyl-4-(1-(4-(perfluoroethoxy)phenyl)-1H-1,2,4-triazol-3-yl)phenyl)urea] the “YFM % Control (or Mortality) rating” value [3] was “A (80-100)”.
